In patent publication US20120010235A1, “N-SUBSTITUTED PYRROLIDINES” (priority 2010, published 2012):
Structures can show the parent of a compound that is named as a salt.

tested on: SJSA, an osteocarcinoma cell line; experiment: antiproliferative activity assay (tetrazolium dye, MTT) in SJSA cells; conditions: cell-based MTT assay, inhibition of cell proliferation, read-out: TT IC50
Procedure: The pharmacological properties of the compounds of this invention may be confirmed by a number of pharmacological assays. The exemplified antiproliferative activity assay which follows has been carried out with the compounds according to the invention.
Cell proliferation was evaluated by the tetrazolium dye assay according to the procedure of Denizot and Lang (Denizot, F. and Lang, R. (1986) Rapid colorimetric assay for cell growth and survival. Modification to the terrazolium dye procedure giving improved sensitivity and reliability. J. Immunol. Methods 89, 271-277). The cell line used was SJSA, an osteocarcinoma cell line obtained from the American Type Cell Culture Collection (ATCC; Rockville, Md.). The cells were grown in PRMI with 10% FBS (Fetal Bovine Serum, Invitrogen).
Cells were plated at the appropriate seeding density to give logarithmic growth over the course of the assay in a 96-well tissue culture plate. Plates were incubated overnight at 37° C. in a humidified incubator with 5% CO2. The next day, test compounds were serially diluted 1:3 in the appropriate medium containing 3% DMSO. One-tenth final volume of each dilution was added […] to the plates containing cells. The same volume of 3% DMSO in medium was added to a row of control wells. Thus, the final concentration of DMSO in all wells was 0.3%. The plates were returned to the incubator, and at set time points (determined by their growth curves) plates were analyzed as follows: 3-(4,5-dimethylthiazole-2-yl)-2,5-diphenyl-2H-tetrazolium bromide (thiazolyl blue; MTT; Sigma) was added to each well to yield a final concentration of 1 mg/ml. Plates were returned to the incubator for 2.5 hours. The MTT-containing medium was removed and the resulting formazan metabolite was solubilized in 100% ethanol with shaking for 15 minutes at room temperature. Absorbances were read in a microtiter plate reader at a wavelength of 570 nm with a 650 nm reference. Percent inhibition (% INH) was calculated by subtracting the blank from all wells, then subtracting the ratio of the average absorbance of each triplicate (SAVE) by the average of the controls (CAVE) from 1.00. The final product was then multiplied by 100 (% INH=(1.00−SAVE/CAVE)×100). The concentration at which 50% inhibition (IC50) of cell proliferation is obtained was determined from the linear regression of a plot of the logarithm of the concentration versus percent inhibition.

Row | SMILES | IC50
1 | CN1[C@@H](CC(C)(C)C)[C@](C#N)(c2ccc(Cl)cc2F)[C@@H](c2cccc(Cl)c2F)[C@@H]1C(=O)Nc1ccn(CC(C)(C)O)n1 [Example 58, (2R,3S,4R,5S)-3-(3-chloro-2-fluoro-phenyl)-4-(4-chloro-2-fluoro-phenyl)-4-cyano-5-(2,2-dimethyl-propyl)-1-methyl-pyrrolidine-2-carboxylic acid [1-(2-hydroxy-2-methyl-propyl)-1H-pyrazol-3-yl]-amide] | 3590 nM
2 | CC(C)(C)C[C@@H]1N(CCC2CCCCC2)[C@@H](C(=O)Nc2ccc(C(=O)O)cc2)[C@H](c2cccc(Cl)c2F)[C@@]1(C#N)c1ccc(Cl)cc1F (racemic) [Example 37, rac-4-{[(2R,3S,4R,5S)-3-(3-chloro-2-fluoro-phenyl)-4-(4-chloro-2-fluoro-phenyl)-4-cyano-1-(2-cyclohexyl-ethyl)-5-(2,2-dimethyl-propyl)-pyrrolidine-2-carbonyl]-amino}-benzoic acid] | 110 nM
3 | CCCN1[C@@H](CC(C)(C)C)[C@](C#N)(c2ccc(Cl)cc2F)[C@@H](c2cccc(Cl)c2F)[C@@H]1C(=O)Nc1ccc(C(=O)O)c(OC)c1 (racemic) [Example 49, 4-{[(2R,3S,4R,5S)-3-(3-chloro-2-fluoro-phenyl)-4-(4-chloro-2-fluoro-phenyl)-4-cyano-5-(2,2-dimethyl-propyl)-1-propyl-pyrrolidine-2-carbonyl]-amino}-2-methoxy-benzoic acid] | 1490 nM
4 | CCN1[C@@H](CC(C)(C)C)[C@](C#N)(c2ccc(Cl)cc2F)[C@@H](c2cccc(Cl)c2F)[C@@H]1C(=O)Nc1ccc(C(=O)O)c(OC)c1 (racemic) [Example 41, 4-{[(2R,3S,4R,5S)-3-(3-chloro-2-fluoro-phenyl)-4-(4-chloro-2-fluoro-phenyl)-4-cyano-5-(2,2-dimethyl-propyl)-1-ethyl-pyrrolidine-2-carbonyl]-amino}-2-methoxy-benzoic acid] | 1230 nM
5 | COc1cc(NC(=O)[C@H]2[C@H](c3cccc(Cl)c3F)[C@@](C#N)(c3ccc(Cl)cc3F)[C@H](CC(C)(C)C)N2CCC2CCCCC2)ccc1C(=O)O (racemic) [Example 48, 4-{[(2R,3S,4R,5S)-3-(3-chloro-2-fluoro-phenyl)-4-(4-chloro-2-fluoro-phenyl)-4-cyano-1-(2-cyclohexyl-ethyl)-5-(2,2-dimethyl-propyl)-pyrrolidine-2-carbonyl]-amino}-2-methoxy-benzoic acid trifluoroacetate salt] | 430 nM
6 | COc1cc(C(N)=O)ccc1NC(=O)[C@H]1[C@H](c2cccc(Cl)c2F)[C@@](C#N)(c2ccc(Cl)cc2F)[C@H](CC(C)(C)C)N1C (racemic) [Example 50, rac-(2R,3S,4R,5S)-3-(3-chloro-2-fluoro-phenyl)-4-(4-chloro-2-fluoro-phenyl)-4-cyano-5-(2,2-dimethyl-propyl)-1-methyl-pyrrolidine-2-carboxylic acid (4-carbamoyl-2-methoxy-phenyl)-amide] | 370 nM
7 | CN1[C@@H](CC(C)(C)C)[C@](C#N)(c2ccc(Cl)cc2F)[C@@H](c2cccc(Cl)c2F)[C@@H]1C(=O)Nc1ncc(C(=O)O)[nH]1 [Example 55, 2-{[(2R,3S,4R,5S)-3-(3-chloro-2-fluoro-phenyl)-4-(4-chloro-2-fluoro-phenyl)-4-cyano-5-(2,2-dimethyl-propyl)-1-methyl-pyrrolidine-2-carbonyl]-amino}-3H-imidazole-4-carboxylic acid trifluoracetate salt] | 4000 nM
8 | CN1[C@@H](CC(C)(C)C)[C@](C#N)(c2ccc(Cl)cc2F)[C@@H](c2cccc(Cl)c2F)[C@@H]1C(=O)Nc1ccc(C(=O)O)c(F)c1 [Example 26, 4-{[(2R,3S,4R,5S)-3-(3-chloro-2-fluoro-phenyl)-4-(4-chloro-2-fluoro-phenyl)-4-cyano-5-(2,2-dimethyl-propyl)-1-methyl-pyrrolidine-2-carbonyl]-amino}-2-fluoro-benzoic acid trifluoroacetate salt] | 320 nM
9 | CC(C)CN1[C@@H](CC(C)(C)C)[C@](C#N)(c2ccc(Cl)cc2F)[C@@H](c2cccc(Cl)c2F)[C@@H]1C(=O)Nc1ccc(C(=O)O)cc1 [Example 32, 4-{[(2R,3S,4R,5S)-3-(3-chloro-2-fluoro-phenyl)-4-(4-chloro-2-fluoro-phenyl)-4-cyano-5-(2,2-dimethyl-propyl)-1-isobutyl-pyrrolidine-2-carbonyl]-amino}-benzoic acid] | 660 nM
10 | C=CCCCN1[C@@H](CC(C)(C)C)[C@](C#N)(c2ccc(Cl)cc2F)[C@@H](c2cccc(Cl)c2F)[C@@H]1C(=O)Nc1ccc(C(=O)O)c(OC)c1 (racemic) [Example 47, 4-{[(2R,3S,4R,5S)-3-(3-chloro-2-fluoro-phenyl)-4-(4-chloro-2-fluoro-phenyl)-4-cyano-5-(2,2-dimethyl-propyl)-1-pent-4-enyl-pyrrolidine-2-carbonyl]-amino}-2-methoxy-benzoic acid] | 620 nM
11 | COc1cc(NC(=O)[C@H]2[C@H](c3cccc(Cl)c3F)[C@@](C#N)(c3ccc(Cl)cc3F)[C@H](CC(C)(C)C)N2CCC(C)C)ccc1C(=O)O (racemic) [Example 45, 4-{[(2R,3S,4R,5S)-3-(3-chloro-2-fluoro-phenyl)-4-(4-chloro-2-fluoro-phenyl)-4-cyano-5-(2,2-dimethyl-propyl)-1-(3-methyl-butyl)-pyrrolidine-2-carbonyl]-amino}-2-methoxy-benzoic acid] | 420 nM
12 | CN1[C@@H](CC(C)(C)C)[C@](C#N)(c2ccc(Cl)cc2F)[C@@H](c2cccc(Cl)c2F)[C@@H]1C(=O)Nc1ccc(C(C)(C)C(=O)O)cc1 [Example 27, 2-(4-{[(2R,3S,4R,5S)-3-(3-chloro-2-fluoro-phenyl)-4-(4-chloro-2-fluoro-phenyl)-4-cyano-5-(2,2-dimethyl-propyl)-1-methyl-pyrrolidine-2-carbonyl]amino}-phenyl)-2-methyl-propionic acid] | 1950 nM
13 | COC(=O)c1nc(NC(=O)[C@H]2[C@H](c3cccc(Cl)c3F)[C@@](C#N)(c3ccc(Cl)cc3F)[C@H](CC(C)(C)C)N2C)n[nH]1 [Example 54, 5-{[(2R,3S,4R,5S)-3-(3-chloro-2-fluoro-phenyl)-4-(4-chloro-2-fluoro-phenyl)-4-cyano-5-(2,2-dimethyl-propyl)-1-methyl-pyrrolidine-2-carbonyl]-amino}-2H-[1,2,4]triazole-3-carboxylic acid methyl ester] | 750 nM
14 | COc1cc(NC(=O)[C@H]2[C@H](c3cccc(Cl)c3F)[C@@](C#N)(c3ccc(Cl)cc3F)[C@H](CC(C)(C)C)N2C)ccc1C(=O)O (racemic) [Example 42, 4-{[(2R,3S,4R,5S)-3-(3-chloro-2-fluoro-phenyl)-4-(4-chloro-2-fluoro-phenyl)-4-cyano-5-(2,2-dimethyl-propyl)-1-methyl-pyrrolidine-2-carbonyl]-amino}-2-methoxy-benzoic acid] | 1360 nM
15 | CC(C)(C)C[C@@H]1N(CC2CC2)[C@@H](C(=O)Nc2ccc(C(=O)O)cc2)[C@H](c2cccc(Cl)c2F)[C@@]1(C#N)c1ccc(Cl)cc1F (racemic) [Example 34, rac-4-{[(2R,3S,4R,5S)-3-(3-chloro-2-fluoro-phenyl)-4-(4-chloro-2-fluoro-phenyl)-4-cyano-1-cyclopropylmethyl-5-(2,2-dimethyl-propyl)-pyrrolidine-2-carbonyl]-amino}-benzoic acid] | 300 nM
16 | CN1[C@@H](CC(C)(C)C)[C@](C#N)(c2ccc(Cl)cc2F)[C@@H](c2cccc(Cl)c2F)[C@@H]1C(=O)Nc1ccc(C(=O)O)cc1 [Example 25, 4-{[(2R,3S,4R,5S)-3-(3-chloro-2-fluoro-phenyl)-4-(4-chloro-2-fluoro-phenyl)-4-cyano-5-(2,2-dimethyl-propyl)-1-methyl-pyrrolidine-2-carbonyl]-amino}-benzoic acid] | 390 nM
17 | CCCCN1[C@@H](CC(C)(C)C)[C@](C#N)(c2ccc(Cl)cc2F)[C@@H](c2cccc(Cl)c2F)[C@@H]1C(=O)Nc1ccc(C(=O)O)c(OC)c1 (racemic) [Example 43, 4-{[(2R,3S,4R,5S)-1-butyl-3-(3-chloro-2-fluoro-phenyl)-4-(4-chloro-2-fluoro-phenyl)-4-cyano-5-(2,2-dimethyl-propyl)-pyrrolidine-2-carbonyl]-amino}-2-methoxy-benzoic acid] | 1140 nM
18 | CCOC(=O)C1CC1CN1[C@@H](CC(C)(C)C)[C@](C#N)(c2ccc(Cl)cc2F)[C@@H](c2cccc(Cl)c2F)[C@@H]1C(=O)Nc1ccc(C(=O)OC)cc1OC (stereo partly drawn) [Example 61, 4-{[(2R,3S,4R,5S)-3-(3-chloro-2-fluoro-phenyl)-4-(4-chloro-2-fluoro-phenyl)-4-cyano-5-(2,2-dimethyl-propyl)-1-(2-ethoxycarbonyl-cyclopropylmethyl)-pyrrolidine-2-carbonyl]-amino}-3-methoxy-benzoic acid methyl ester] | 680 nM
